Results on 1 molecule are retold here after patent US12186332B2, “Methods for overcoming WNT/beta-catenin anti-cancer resistance in leukemia stem cells” (STOWERS INSTITUTE FOR MEDICAL RESEARCH, priority 2019, dated 2025).

Each structure is given as a SMILES string.

In the test the test system is β-catenin binding of the Cd24a gene locus. The test is described as follows: ChIP-qPCR in Ctnnb1-3xFlag mouse ES cells. The class given is cell-based. The following applies: 4 hours. As for the experimental part:
The Ctnnb1-3×Flag mouse ES cell line was provided by Andrew McMahon (University of Southern California) and routinely passaged and maintained on irradiated MEF feeder in conventional ES cell medium supplemented with […] and […] Hygromycin B. Cells were adapted and expanded to serum free 2i culture for experiments. For serum-free 2i culture, ES cells were cultured without serum in the N2B27 medium: neurobasal medium(Invitrogen 21103-049), DMEM/F12 (Invitrogen 10565-018), 0.5×N2 (Invitrogen 17502-048), 0.5×B27 (Invitrogen 17504044), 1×b-mercaptoethanol(Millipore ES-007-E), 2 mM Lglutamine(Invitrogen 25030081), […] non-essential amino acid(NEAA)(SCT 07600), 0.033% BSA(Invitrogen 15260037), […] CHIRON(Tocris 4423), […] PD03 (SCT72184).
A total of 2×10^7 ES cells were used per ChIP assay. Cells were washed with 1×PBS and crosslinked with 1% paraformaldehyde for 10 min at RT and quenched with 1 ml 2.5M glycine. Cells were washed with cold PBS three times and resuspended in […] lysis buffer (15 mM HEPES at pH 7.5, 140 mM NaCl, 1 mM EDTA, 0.5 mM EGTA, 1% Triton X100, 0.1% sodium deoxycholate, 1% SDS, 0.5% N-lauroylsarcosine). […] ChIP-qPCR was performed with Fast SYBR™ Green Master Mix (Thermo Fisher Scientific 4385612) and analyzed with the Student's t-test.

With `COc1cccc2c1C(=O)c1c(O)c3c(c(O)c1C2=O)C[C@@](O)(C(=O)CO)C[C@@H]3O[C@H]1C[C@H](N)[C@H](O)[C@H](C)O1` [DXR, doxorubicin], the “β-catenin binding of the Cd24 promoter region” value is “partially reversed” (high-dose DXR (3 μM)) and “essentially abolished” (low-dose DXR (30 nM)).
